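Where inhibition never reached the appropriate level, the endpoint shown equals the highest concentration tested. Otherwise, values were interpolated linearly from a five-concentration, 48-hour dose response in 96-well plates. Abbreviation: GI50, concentration required for 50% inhibition of growth. TGI: concentration producing complete growth inhibition.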
Legend:
Assay in all cases: growth of human tumour cells (NCI), 48 h
[1] = tested on: EKVX NSCLC
[2] = tested on: NCI-H23 lung
[3] = tested on: M14 melanoma
[4] = tested on: OVCAR-5 ovarian
[5] = tested on: SF-268 CNS
[6] = tested on: NCI/ADR-RES ovarian
[7] = tested on: COLO 205 colon
[8] = tested on: LOX IMVI melanoma
[9] = tested on: BT-549 breast
[10] = tested on: NCI-H522 lung
[11] = tested on: CAKI-1 renal
[12] = tested on: MDA-MB-231 breast
[13] = tested on: 786-0 renal
[14] = tested on: MCF7 breast
[15] = tested on: NCI-H460 lung
[16] = tested on: T-47D breast
[17] = tested on: SW-620 colon
[18] = tested on: OVCAR-8 ovarian
[19] = tested on: HCT-116 colon
[20] = tested on: SF-539 CNS
[21] = tested on: DU-145 prostate
[22] = tested on: SK-MEL-28 melanoma
[23] = tested on: K-562 leukemia
[24] = tested on: SNB-75 CNS
[25] = tested on: MALME-3M melanoma
[26] = tested on: OVCAR-4 ovarian
[27] = tested on: ACHN renal
[28] = tested on: U251 CNS
[29] = tested on: HT29 colon

CC/C(=C(\c1ccc(O)cc1)c1ccc(OCCN(C)C(=O)COCCNC(=O)Cc2ccc3c(c2)CN([C@@H]2CCC(=O)NC2=O)C3=O)cc1)c1ccccc1 gave a GI50 [1] of over 47 µM, a TGI [1] of over 100 µM and a GI50 [2] of over 93.6 µM. The TGI [2] was over 100 µM, the GI50 [3] was 30.8 µM and the TGI [3] was over 100 µM. It also gave a GI50 [4] of over 57.6 µM, a TGI [4] of over 100 µM and a GI50 [5] of 5.38 µM. It also gave a TGI [5] of over 100 µM, a GI50 [6] of over 100 µM and a TGI [6] of over 100 µM. The GI50 [7] was 2.11 µM, the TGI [7] was 33.3 µM and the GI50 [8] was over 84.5 µM. For the same compound, the TGI [8] was over 100 µM, the GI50 [9] was 0.15 µM and the TGI [9] was 0.743 µM. The GI50 [10] was over 21.6 µM, the TGI [10] was over 100 µM and the GI50 [11] was 55.1 µM. It also gave a TGI [11] of over 100 µM, a GI50 [12] of 0.142 µM and a TGI [12] of 0.801 µM. It also gave a GI50 [13] of 51.7 µM, a TGI [13] of over 100 µM and a GI50 [14] of 0.104 µM. It also gave a TGI [14] of over 100 µM, a GI50 [15] of over 100 µM and a TGI [15] of over 100 µM. For the same compound, the GI50 [16] was 0.0259 µM, the TGI [16] was 4.61 µM and the GI50 [17] was 1.9 µM. The TGI [17] was over 100 µM, the GI50 [18] was 1.56 µM and the TGI [18] was 33.4 µM. It also gave a GI50 [19] of over 85.7 µM, a TGI [19] of over 100 µM and a GI50 [20] of over 62.6 µM. The TGI [20] was over 100 µM, the GI50 [21] was over 100 µM and the TGI [21] was over 100 µM. For the same compound, the GI50 [22] was 21.6 µM, the TGI [22] was over 100 µM and the GI50 [23] was 16 µM. It also gave a TGI [23] of over 100 µM, a GI50 [24] of 0.316 µM and a TGI [24] of over 94.8 µM. For the same compound, the GI50 [25] was 0.306 µM, the TGI [25] was 2.49 µM and the GI50 [26] was 11.2 µM. For the same compound, the TGI [26] was over 100 µM, the GI50 [27] was over 100 µM and the TGI [27] was over 100 µM. For the same compound, the GI50 [28] was over 74.9 µM, the TGI [28] was over 100 µM and the GI50 [29] was over 57.6 µM. It also gave a TGI [29] of over 100 µM.
